For 36 molecules, inhibition results are on record in PMC8041284, “Tunable Methacrylamides for Covalent Ligand Directed Release Chemistry” (Journal of the American Chemical Society, 2021).

The target of the assay is BTK (Homo sapiens, UniProt Q06187). The assay can be described thus: biochemical.
Where [1] appears, read: read-out: BTK inhibition (%), 0.75 uM BTK, […] probe 3l, 15 min preincubation.

Like-named read-outs stand apart in the source and are kept apart here. *1 amine or outer side, *2 acyl side, *3 side chain or, on linkers, in order; H or OH if unused. Where a SMILES comes first, the peptide text is derived from it. Bridges are numbered along the chain shown (N, C = ends). Roman numbers before positions name the chains, in order. [ ]: non-standard residue; d: D form. Hexamethylenediamine = C(CCCN[*:2])CCN[*:1]; Dip = N[C@H](C(=O)O)C(c1ccccc1)c1ccccc1; Chg = N[C@H](C(=O)O)C1CCCCC1; NMeA = CN[C@@H](C)C(=O)O

As usually defined, the inhibition is the relative decrease from the control value, in per cent.

BTK, sequence (Q06187 402-655 limits assumed): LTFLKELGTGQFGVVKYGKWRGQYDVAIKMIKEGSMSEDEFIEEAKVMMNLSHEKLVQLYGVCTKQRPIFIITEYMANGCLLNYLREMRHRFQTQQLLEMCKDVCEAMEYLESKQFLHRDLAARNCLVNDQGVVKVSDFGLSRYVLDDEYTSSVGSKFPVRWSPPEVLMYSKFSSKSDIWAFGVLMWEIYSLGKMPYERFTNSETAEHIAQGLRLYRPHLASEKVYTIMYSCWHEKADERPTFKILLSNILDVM

As for `O=C(Nc1cccnc1)c1cc(-c2ccnc(F)c2)ccc1OCc1ccccc1` [PCM-0213433], the inhibition at 10 µM under setting [1] was found to be 2.1%. On to `CN1C(=O)[C@@H](NC(=O)c2cc(Cc3ccccc3)on2)COc2ccccc21` [PCM-0213452], for which the inhibition at 10 µM under setting [1] amounted to 3.1%.

Consider `CN(C)C/C=C/C(=O)Nc1ccc(C(=O)Nc2cccc(Nc3ncc(Cl)c(-c4c[nH]c5ccccc45)n3)c2)cc1` [PCM-0213464], for which, under setting [1], the inhibition at 10 µM was determined as 117%.

In the case of `CN(C)CC(=O)Nc1ccc2[nH]c(=O)c3ccccc3c2c1` [PCM-0213810], the inhibition at 10 µM under setting [1] was -7.7%. On to `CC(=O)OC(C)(C)CCC(=O)[C@](C)(O)[C@H]1[C@H](O)C[C@@]2(C)[C@@H]3CC=C4[C@@H](C[C@H](O)[C@@H](O)C4(C)C)[C@]3(C)C(=O)C[C@]12C` [PCM-0214543], for which the inhibition at 10 µM under setting [1] is -13.8%. With `COc1ccc(/C=C/c2cc(O)cc(O[C@@H]3O[C@H](CO)[C@@H](O)[C@H](O)[C@H]3O)c2)cc1O` [PCM-0214544], the inhibition at 10 µM under setting [1] came to 6.9%. For `CO[C@H]1C[C@@H]2CC[C@@H](C)[C@@](O)(O2)C(=O)C(=O)N2CCCC[C@H]2C(=O)O[C@H]([C@H](C)C[C@@H]2CC[C@@H](OCCO)[C@H](OC)C2)CC(=O)[C@H](C)/C=C(\C)[C@@H](O)[C@@H](OC)C(=O)[C@H](C)C[C@H](C)/C=C/C=C/C=C/1C` [PCM-0214563], the inhibition at 10 µM under setting [1] was -12.4%. `C[C@@H](O[C@H]1OCCN(Cc2n[nH]c(=O)[nH]2)[C@H]1c1ccc(F)cc1)c1cc(C(F)(F)F)cc(C(F)(F)F)c1` [PCM-0214564]: the inhibition at 10 µM under setting [1] was -8.3%. For the molecule `NC(=O)[C@@H](CCC(F)(F)F)N(Cc1ccc(-c2ncon2)cc1F)S(=O)(=O)c1ccc(Cl)cc1` [PCM-0214565], the inhibition at 10 µM under setting [1] was 9.3%. Turning to `CC1(C)CC(=O)c2c(C(F)(F)F)nn(-c3ccc(C(N)=O)c(NC4CCC(O)CC4)c3)c2C1` (stereo not drawn) [PCM-0214567], under setting [1], the inhibition at 10 µM is -36.6%. For the molecule `CC1(O)CC(c2nc(-c3ccc4ccc(-c5ccccc5)nc4c3)c3c(N)nccn23)C1` (stereo not drawn) [PCM-0214568], under setting [1], the inhibition at 10 µM was found to be 33.1%. Same read-out and setting: the value for `COCCCOc1cc(C[C@@H](C[C@H](N)[C@@H](O)C[C@H](C(=O)NCC(C)(C)C(N)=O)C(C)C)C(C)C)ccc1OC` [PCM-0214569] was 7%; that for `CC[C@H](NC(=O)[C@H](C)NC)C(=O)N1C[C@@H](O)C[C@H]1Cc1c(-c2[nH]c3cc(F)ccc3c2C[C@@H]2C[C@H](O)CN2C(=O)[C@H](CC)NC(=O)[C@H](C)NC)[nH]c2cc(F)ccc12` [PCM-0214572] was 5.4%. The same measure, in the same setting: to `CN[C@@H](C)C(=O)N[C@H](C(=O)N1CCC[C@H]1C(=O)N[C@H](C(=O)NCCCCCCNC(=O)[C@@H](NC(=O)[C@@H]1CCCN1C(=O)[C@@H](NC(=O)[C@H](C)NC)C1CCCCC1)C(c1ccccc1)c1ccccc1)C(c1ccccc1)c1ccccc1)C1CCCCC1` [PCM-0214574] (I: H-[NMeA][Chg]P[Dip] / II: H-[NMeA][Chg]P[Dip]; linker I:C-II:C via Hexamethylenediamine) belongs -1.5%. As for `OC1CCC(Nc2ncc3nc(Nc4c(F)cc(F)cc4F)n([C@H]4CCOC4)c3n2)CC1` (stereo partly drawn) [PCM-0214575], the inhibition at 10 µM under setting [1] was -10.3%.

Take `N#Cc1cnc(Nc2cc(NC[C@H]3CNCCO3)c(C(F)(F)F)cn2)cn1` [PCM-0214576]: the inhibition at 10 µM under setting [1] was -0.7%. The same measure, in the same setting: the value for `COC(=O)c1ccc([C@H]2C3Nc4ccccc4C3C[C@H](C(=O)OC)N2C(=O)CCl)cc1` (stereo partly drawn) [PCM-0214584] was 35.5%.

In the case of `COc1cc(C)[nH]c(=O)c1CNC(=O)c1c(C)n([C@H](C)C2CCOCC2)c2ccccc12` [PCM-0214591], the inhibition at 10 µM (read-out: BTK inhibition (%)) was -24.7%. Consider `COc1cc(C)[nH]c(=O)c1CNC(=O)c1c(C)n([C@H](C)C2CCN(CC(F)(F)F)CC2)c2ccccc12` [PCM-0214592], for which, under setting [1], the inhibition at 10 µM amounted to 21.6%. Still for that read-out and setting: the value for `O=C(CCCCCCNC(=O)c1cnc(N(c2ccccc2)c2ccccc2Cl)nc1)NO` [PCM-0214593] was -6.9%.

Turning to `CCS(=O)(=O)Nc1ccc(Oc2ccc(F)cc2F)c(-c2cn(C)c(=O)c3[nH]ccc23)c1` [PCM-0214596], the inhibition at 10 µM under setting [1] is 16.2%. As for `CO[C@H]1C[C@@H]2CC[C@@H](C)[C@@](O)(O2)C(=O)C(=O)N2CCCC[C@H]2C(=O)O[C@H]([C@H](C)C[C@@H]2CC[C@@H](OP(C)(C)=O)[C@H](OC)C2)CC(=O)[C@H](C)/C=C(\C)[C@@H](O)[C@@H](OC)C(=O)[C@H](C)C[C@H](C)/C=C/C=C/C=C/1C` [PCM-0214600], the inhibition at 10 µM under setting [1] is -16.6%. Regarding `CC(=O)O[C@H]1C(=O)[C@@]2(C)[C@H]([C@H](OC(=O)c3ccccc3)[C@]3(O)C[C@H](OC(=O)[C@H](O)[C@@H](NC(=O)c4ccccc4)c4ccccc4)C(C)=C1C3(C)C)[C@]1(OC(C)=O)CO[C@@H]1C[C@@H]2O` [PCM-0214601], the inhibition at 10 µM under setting [1] was -17.9%. On to `CC(C)(C)OC(=O)N[C@H]1CCCCC/C=C\[C@@H]2C[C@@]2(C(=O)NS(=O)(=O)C2CC2)NC(=O)[C@@H]2C[C@@H](OC(=O)N3Cc4cccc(F)c4C3)CN2C1=O` [PCM-0214602], for which the inhibition at 10 µM under setting [1] was -12.5%. On to `CC(C)c1nc(CN(C)C(=O)N[C@H](C(=O)N[C@@H](Cc2ccccc2)C[C@H](O)[C@H](Cc2ccccc2)NC(=O)OCc2cncs2)C(C)C)cs1` [PCM-0214603], for which the inhibition at 10 µM under setting [1] was -19.5%. In the case of `C[C@]12CC[C@@H]3c4ccc(O)cc4C[C@@H](CCCCCCCCC[S+]([O-])CCCC(F)(F)C(F)(F)F)[C@H]3[C@@H]1CC[C@@H]2O` (stereo partly drawn) [PCM-0214604], the inhibition at 10 µM under setting [1] was determined as 15.6%.

For `C=C1C[C@@H]2[C@H](CC[C@]3(C)C(=O)CC[C@@H]23)[C@@]2(C)C=CC(=O)C=C12` [PCM-0214605], the inhibition at 10 µM under setting [1] was -6.9%.

In the case of `C[C@]12C=CC(=O)N[C@@H]1CC[C@@H]1[C@@H]2CC[C@]2(C)[C@@H](C(=O)Nc3cc(C(F)(F)F)ccc3C(F)(F)F)CC[C@@H]12` [PCM-0214606], the inhibition at 10 µM under setting [1] is -4.7%.

`COc1cc2c(cc1O)CC[C@@H]1[C@@H]2CC[C@]2(C)[C@@H](O)CC[C@@H]12` [PCM-0214607]: the inhibition at 10 µM under setting [1] was -2.8%.

Take `CC[C@@H]([C@H](C)O)n1ncn(-c2ccc(N3CCN(c4ccc(OC[C@@H]5CO[C@@](Cn6cncn6)(c6ccc(F)cc6F)C5)cc4)CC3)cc2)c1=O` [PCM-0214608]: under setting [1], the inhibition at 10 µM amounted to 4.7%. Take `CCCC1O[C@@H]2C[C@H]3[C@@H]4CCC5=CC(=O)C=C[C@]5(C)[C@H]4[C@@H](O)C[C@]3(C)[C@]2(C(=O)CO)O1` (stereo partly drawn) [PCM-0214610]: the inhibition at 10 µM under setting [1] is -13.1%.

Turning to `CC(=O)O[C@]1(C(C)=O)CC[C@H]2[C@@H]3C=C(C)C4=CC(=O)CC[C@]4(C)[C@H]3CC[C@@]21C` [PCM-0214613], the inhibition at 10 µM under setting [1] is -4.8%. In the case of `C=C1C(=O)O[C@@H]2/C=C(\C)CC/C=C(\C)CC[C@@H]12` [PCM-0214614], the inhibition at 10 µM under setting [1] was found to be 46.7%. On the same count and under the same terms, the value for `C[C@@H]1C(=O)O[C@H]2[C@@H](O)[C@@]34[C@H]5C[C@@H](C(C)(C)C)[C@]36[C@@H](OC(=O)[C@@H]6O)O[C@@]4(C(=O)O5)[C@@]12O` [PCM-0214615] was 16.3%.

For the molecule `C#C[C@]1(O)C=C[C@H]2[C@@H]3CCC4=CC(=O)CC[C@@H]4[C@H]3CC[C@@]21CC` [PCM-0214616], the inhibition at 10 µM under setting [1] worked out at 3.1%.

Consider `C[C@]12CCC(=O)C=C1[C@@H]1C[C@@H]1[C@H]1[C@@H]3[C@@H]4C[C@@H]4[C@@]4(CCC(=O)O4)[C@@]3(C)CC[C@@H]12` [PCM-0214617], for which the inhibition at 10 µM under setting [1] is -15.6%.
